# Test results from patent US20050058745A1, “Use of Labiatae herb preparations for extending the flavor shelf life of malt beverages” (priority 2003, published 2005).
# How the values were obtained:
# [1] = Trained panel flavor evaluation, light beer, forced aging; conditions: 5 ppm, 6 days 32° C.; for preservation of fresh flavor (words): light beer
# Description: Separate solution of pure rosmarinic acid, pure carnosol and pure carnosic acid were prepared in ethanol as previously.
# The light beer used in this study was approximately one month old and was purchased at a local market. Bottle additions were done as in Example 1.
# The bottles were placed in a heated room at 32±1° C. in the dark. After the allotted aging time, the bottles of beer were transferred to a dark refrigerator and stored at approximately 2° to 4° C. until they were analyzed. Additional bottles from the same code were kept unopened in 2° to 4° C. storage. These unopened samples from the same beer code were labeled “Fresh Control” used to provide fresh samples for the trained panel.
# At the appropriate times, a trained 7-member panel evaluated the beers. […] Five beers were evaluated at the session—Fresh Control, Aged No Addition, and Aged containing each one of the Labiatae treatments. The overall preference rank, the character and intensity of the aroma, the levels of paper/cardboard aroma and flavor, sour or off flavors, hang and astringency and bitterness quality and intensity were evaluated.
# [2] = DCIP redox potential of light beer during pasteurization; type: physicochemical; conditions: for preservation of redox potential during pasteurization: 20 ppm; for Redox Potential: +20 ppm
# Description: Five bottles of a commercial light beer, 81 days old at the time of the experiment, but having been stored at 2° C. were used in this experiment. The following five treatments were prepared: • 1. An unpasteurized control was prepared by leaving one bottle unopened in the refrigerator until analysis. • 2. Another bottle was opened, 20 ppm carnosic acid was added from a solution made from pure material, and the bottle fobbed and crowned. This sample was also not pasteurized. • 3. A bottle was opened, fobbed to exclude air, and crowned. This sample is designated the No Addition Pasteurized Control. • 4. A bottle was opened and 20 ppm carnosic acid was added from a solution made from pure compound. The bottle was fobbed and crowned and subjected to pasteurization. • 5. A bottle was opened and 20 ppm of rosmarinic acid was added from a solution of pure compound. The bottle was fobbed and crowned and subjected to pasteurization. Treatments 3, 4, and 5 were immersed in an ambient temperature water bath and heated to 60° C. The approximate time to reach 60° C. from ambient was 12 minutes. The bottles remained at 60° C. for 12 minutes. They were then removed and cooled. All five treatments were analyzed by the DCIP-Redox method described in Example 4.
# [3] = 3-Methylbutanal in headspace of aged beer; type: physicochemical; conditions: 20 ppm (RA + CA: 10 ppm each)
# Description: The highly hopped beer from example 2 was treated with solutions of carnosic acid in ethanol, rosmarinic acid in ethanol or a mixture of carnosic acid and rosmarinic acid in ethanol as done previously. […] The bottles were fobbed to exclude air and crowned. • 3. “20 ppm CA+air” in which bottles were opened and 20 ppm CA added as above. These bottles received two puffs of air in the remaining headspace from a 25 mL bulb. They were crowned without fobbing • 4. “20 ppm RA” in which bottles were opened and 20 ppm rosmarinic acid added from a 2% solution. The bottles were fobbed and crowned. • 5. “20 ppm RA+air” which was done as in No. 4, with 20 ppm RA added. These bottles received the two puffs of air and were crowned without fobbing. • 6. “10 ppm RA+10 ppm CA” in which bottles were opened and 10 ppm each of carnosic and rosmarinic acids were added from pure solutions (178 μL of 2% solution per 12 oz bottle). Bottles were fobbed and crowned. • 7. “10 ppm RA+10 ppm CA+air” in which 10 ppm each of RA and CA was added. This treatment received two puffs of air and was not fobbed before closing. • 8. “Control+air” in which bottles were opened, given two puffs of air and crowned without fobbing. • 9. “Control” in which bottles were opened, fobbed and crowned. Treatments 2 through 9 were stored in a 40° C. hot room. At various times, bottles were opened and samples analyzed for phenylacetaldehyde and 3-methylbutanal by the method of “[…], et al. The results are shown in Table 19.
# [4] = Blind sensory triangle panels, model citrus beverage
# Description: Carbon filtered water was carbonated to 3.5 to 4 times the volume of beer. 59.2 ml of syrup was added to each 355 ml bottle. Each bottle was individually dosed with the treatments listed in Table 22 by adding 1.775 mL of a 1% (weight/volume) solution of carnosol or rosmarinic acid in ethanol to give 50 ppm of each. The bottle was filled to approximately 355 ml with carbonated water before it was capped and inverted. Fresh samples were stored in the refrigerator (0° C.). Heat exposed samples were aged in the oven (32° C.) for seven days. […] Each panel was balanced, with half of the panel given control as the odd sample, the other half of the panel given a treated sample as the odd sample. Panelists were allowed to drink water during the panel.
# [5] = pasteurized (60° C. for 12 minutes)
# [6] = Aged Control vs. Aged treated (32° C., seven days), 50 ppm (CA + RA: 50 ppm each)
# [7] = Fresh Control vs. Fresh treated, 50 ppm
Structure (SMILES),panelists' preference for treated sample over Aged No Addition sample [1],preservation of fresh flavor (words) [1],preservation of redox potential during pasteurization [2],Redox Potential ([2]; no pasteurization),"Redox Potential [2, 5]","3-Methylbutanal in the headspace of aged beer ([3]; Day 0, 40° C., + air) [Parts per million]","3-Methylbutanal in the headspace of aged beer ([3]; Day 0, 40° C., no air) [Parts per million]","3-Methylbutanal in the headspace of aged beer ([3]; Day 3, 40° C., + air) [Parts per million]","3-Methylbutanal in the headspace of aged beer ([3]; Day 3, 40° C., no air) [Parts per million]","3-Methylbutanal in the headspace of aged beer ([3]; Day 7, 40° C., + air) [Parts per million]","3-Methylbutanal in the headspace of aged beer ([3]; Day 7, 40° C., no air) [Parts per million]","3-Methylbutanal in the headspace of aged beer ([3]; Day 14, 40° C., + air) [Parts per million]","3-Methylbutanal in the headspace of aged beer ([3]; Day 14, 40° C., no air) [Parts per million]","3-Methylbutanal in the headspace of aged beer ([3]; Day 21, 40° C., + air) [Parts per million]","3-Methylbutanal in the headspace of aged beer ([3]; Day 21, 40° C., no air) [Parts per million]","Correct Panelists/Total Panelists (triangle test) [4, 6]","Correct Panelists/Total Panelists (triangle test) [4, 7]","Correct Panelists/Total Panelists (triangle test) ([4]; Fresh Control vs. Aged treated (32° C., seven days), 50 ppm (CA + RA: 50 ppm each))",difference from untreated samples detected by triangle panel ([4]; aged for 7 days)
"CC(C)c1cc2c(c(O)c1O)[C@@]1(C(=O)O)CCCC(C)(C)[C@@H]1CC2 [CA, carnosic acid]",7 of 7 panelists preferred,very significantly retards the rate of staling,"held at a higher level than the untreated, unpasteurized control",67.4,45.0,3.44,3.24,3.85,3.13,3.68,2.98,3.45,1.82,5.09,4.66,9/21,9/20,,
"O=C(/C=C/c1ccc(O)c(O)c1)O[C@H](Cc1ccc(O)c(O)c1)C(=O)O [RA, rosmarinic acid]",7 of 7 panelists preferred,very significantly retards the rate of staling,no potential to preserve the redox potential of beer during pasteurization,,13.4,3.13,4.12,4.14,3.05,3.95,2.73,4.28,3.03,5.06,4.85,12/20,10/22,12/21,significant difference with a 95% confidence level
